Reference: the NIST ThermoML archive (doi:10.1016/j.jct.2008.07.002)

Settings: Transpiration method

Cn1c(=O)c2c(ncn2C)n(C)c1=O [caffeine]
Settings | vapor or sublimation pressure [kPa]
366.2 K, Crystal 2 | 0.00017
373.3 K, Crystal 2 | 0.00033
379.9 K, Crystal 2 | 0.00055
383.9 K, Crystal 2 | 0.00077
386.9 K, Crystal 2 | 0.00106
389.8 K, Crystal 2 | 0.00128
395.9 K, Crystal 2 | 0.00223
400.9 K, Crystal 2 | 0.00338
405 K, Crystal 2 | 0.00441
406 K, Crystal 2 | 0.00525
408 K, Crystal 2 | 0.00577
410.1 K, Crystal 2 | 0.00693
420.2 K, Crystal 1 | 0.01448
424.9 K, Crystal 1 | 0.02064
430.1 K, Crystal 1 | 0.02868
434.5 K, Crystal 1 | 0.03685
